In the supplement of paper PMC10307832:

Key:
Assay in all cases: relative viability (nuclei count vs DMSO), 5 days (fraction); higher = more cells survive
Trametinib = compound: CC(=O)Nc1cccc(-n2c(=O)n(C3CC3)c(=O)c3c(Nc4ccc(I)cc4F)n(C)c(=O)c(C)c32)c1 [Trametinib]
In short: (§1)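 Five library-drug doses spaced by √10 were pinned onto vehicle-anchored 1536-well plates of lung cancer cell lines that had been kept overnight at 37 °C. Cells went 5 days without medium change, then were fixed, permeabilised and Hoechst-stained together, imaged at 4× and counted by MetaXpress. Viability is the ratio of treated-well to vehicle-well nuclei, taken as a median over plates. Plates required control CV below 25% and at least one doubling.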

[1] = compound: CN1C=C(C2=CC=CC=C21)/C=C\3/C4=C(C=CC=N4)NC3=O
In short: as §1

[2] = compound: CN1C=C(C2=CC=CC=C21)/C=C\3/C4=C(C=CC=N4)NC3=O + Cc1cc(Nc2cc(N3CCN(C)CC3)nc(Sc3ccc(NC(=O)C4CC4)cc3)n2)n[nH]1 [Tozasertib] (partner 0.1 µM)
In short: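 Relative viability is defined as nuclei in treated wells over nuclei in vehicle wells. Duplicate plates were run and medians reported. Lung cancer cell lines in 1536-well plates were dosed by pin tool one day after seeding, with one drug or with a fixed anchor-drug dose plus five library-drug doses (not always all listed) in √10 steps, and nuclei were counted after 5 days.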

Q: Which results are given for UMC-11?
A: relative viability (Trametinib; 0.0025 µM): 0.931; relative viability (Trametinib; 0.007906 µM): 1.03; relative viability (Trametinib; 0.02 µM, anchor plate): 0.722; relative viability (Trametinib; 0.025 µM): 0.658; relative viability (Trametinib; 0.07906 µM): 0.92; relative viability (Trametinib; 0.25 µM): 0.985; relative viability ([1]; 0.02 µM): 0.876; relative viability ([1]; 0.06325 µM): 0.884; relative viability ([1]; 0.2 µM): 0.771; relative viability ([1]; 0.6325 µM): 0.968; relative viability ([1]; 2 µM): 1.17; relative viability ([2]; first compound 0.02 µM): 0.206; relative viability ([2]; first compound 0.06325 µM): 0.198; relative viability ([2]; first compound 0.2 µM): 0.177; relative viability ([2]; first compound 0.6325 µM): 0.191; relative viability ([2]; first compound 2 µM): 0.227
